The values that follow come from patent US9169254B2, “Spiroimidazolone derivative” (Chugai Seiyaku Kabushiki Kaisha, priority 2009, dated 2015).

The assay concerns the target T1, human PTH1 receptor (Homo sapiens, UniProt Q03431).
T1 sequence (Q03431 27-593): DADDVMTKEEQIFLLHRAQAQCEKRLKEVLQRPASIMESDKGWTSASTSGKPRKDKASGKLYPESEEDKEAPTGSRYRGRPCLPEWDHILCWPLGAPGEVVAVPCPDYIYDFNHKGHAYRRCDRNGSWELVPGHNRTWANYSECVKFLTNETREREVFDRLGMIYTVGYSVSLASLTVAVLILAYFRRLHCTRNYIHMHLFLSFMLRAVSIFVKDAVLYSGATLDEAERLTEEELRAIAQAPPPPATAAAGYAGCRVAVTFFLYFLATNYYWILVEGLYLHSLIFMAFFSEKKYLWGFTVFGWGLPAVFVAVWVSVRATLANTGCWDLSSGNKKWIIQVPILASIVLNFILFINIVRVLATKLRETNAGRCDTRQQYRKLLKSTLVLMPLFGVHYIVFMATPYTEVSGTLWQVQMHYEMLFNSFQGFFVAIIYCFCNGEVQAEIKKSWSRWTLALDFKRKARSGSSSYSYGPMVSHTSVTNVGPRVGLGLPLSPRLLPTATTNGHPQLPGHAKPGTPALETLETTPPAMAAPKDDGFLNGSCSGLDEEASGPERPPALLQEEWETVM
The assay can be described thus: In vitro cAMP signal activity in HKRK-B7 cells (LLC-PK1 cells overexpressing the human PTH1 receptor). It is filed as cell-based. The conditions noted are these: HKRK-B7 cells; compound at 1×10^−3 M; cAMP produced as percentage of that produced by hPTH(1-34) at 100 nM.

On to `CC(=O)Nc1ccc(CCS(=O)(=O)N2CCC3(CC2)N=C(C2CCC(=CCC(F)F)CC2)NC3=O)c(C)c1` (centres unmarked) [Compound 1076, N-[4-(2-{2-[4-(3,3-difluoro-propylidene)-cyclohexyl]-4-oxo-1,3,8-triaza-spiro[4.5]dec-1-ene-8-sulfonyl}-ethyl)-3-methyl-phenyl]-acetamide], for which the “cAMP production activity (%)” value was determined as 88%.
As to `Cc1cc(C(=O)N2CCC(C)(O)CC2)cc(C)c1/C=C/S(=O)(=O)N1CCC2(CC1)N=C(c1ccc(F)c(OCCCC(F)(F)C(F)(F)F)c1)NC2=O` [Compound 1092, 2-[4-Fluoro-3-(4,4,5,5,5-pentafluoro-pentyloxy)-phenyl]-8-{(E)-2-[4-(4-hydroxy-4-methyl-piperidine-1-carbonyl)-2,6-dimethyl-phenyl]-ethenesulfonyl}-1,3,8-triaza-spiro[4.5]dec-1-en-4-one], the “cAMP production activity (%)” value stood at 89%.
Regarding `Cc1cc(C(=O)N2CCN(C(=O)CCCN(C)C)CC2)cc(C)c1/C=C/S(=O)(=O)N1CCC2(CC1)N=C(c1cccc(OC(F)(F)F)c1)NC2=O` [Compound 449, 8-((E)-2-{4-[4-(4-dimethylamino-butyryl)-piperazine-1-carbonyl]-2,6-dimethyl-phenyl}-ethenesulfonyl)-2-(3-trifluoromethoxy-phenyl)-1,3,8-triaza-spiro[4.5]dec-1-en-4-one], the “cAMP production activity (%)” value is recorded as 94%.
For the molecule `Cc1cc(CN2CCCC2=O)cc(C)c1/C=C/S(=O)(=O)N1CCC2(CC1)N=C(C1CCC(C)CC1)NC2=O` (centres unmarked) [Compound 520, 8-{(E)-2-[2,6-dimethyl-4-(2-oxo-pyrrolidin-1-ylmethyl)-phenyl]-ethenesulfonyl}-2-(4-methyl-cyclohexyl)-1,3,8-triaza-spiro[4.5]dec-1-en-4-one], the “cAMP production activity (%)” value was determined as 28%.
As for `CO[C@H]1CC[C@@H](C2=NC3(CCN(S(=O)(=O)c4cccc(Cl)c4)CC3)C(=O)N2)CC1` [Compound 24, 8-(3-chloro-benzenesulfonyl)-2-(4-methoxy-cyclohexyl)-1,3,8-triaza-spiro[4.5]dec-1-en-4-one], the “cAMP production activity (%)” value came out at 18%.
In the case of `O=C1NC(c2cccc(OC(F)(F)F)c2)=NC12CCN(S(=O)(=O)/C=C/c1cc(Cl)c(OCCC(O)CO)cc1Cl)CC2` (centres unmarked) [Compound 234, 8-{(E)-2-[2,5-dichloro-4-(3,4-dihydroxy-butoxy)-phenyl]-ethenesulfonyl}-2-(3-trifluoromethoxy-phenyl)-1,3,8-triaza-spiro[4.5]dec-1-en-4-one], the “cAMP production activity (%)” value is 78%.
Turning to `Cc1cc(C(=O)N(C)C)cc(C)c1/C=C/S(=O)(=O)N1CCC2(CC1)N=C(C1CCC(C)CC1)NC2=O` (centres unmarked) [Compound 1003, 3,5,N,N-tetramethyl-4-{(E)-2-[2-(4-methyl-cyclohexyl)-4-oxo-1,3,8-triaza-spiro[4.5]dec-1-ene-8-sulfonyl]-vinyl}-benzamide], the “cAMP production activity (%)” value came to 67%.
With `CCC1CCC(C2=NC3(CCN(S(=O)(=O)CCc4ccc(C(=O)N(C)C)cc4C)CC3)C(=O)N2)CC1` (centres unmarked) [Compound 896, 4-{2-[2-(4-ethyl-cyclohexyl)-4-oxo-1,3,8-triaza-spiro[4.5]dec-1-ene-8-sulfonyl]-ethyl}-3,N,N-trimethyl-benzamide], the “cAMP production activity (%)” value turned out to be 83%.
Consider `CCCCCCC(CCC)CCC1=NC2(CCN(S(=O)(=O)CCc3c(C)cc(N(C)C(N)=O)cc3C)CC2)C(=O)N1` (centres unmarked) [Compound 1353, 1-(3,5-dimethyl-4-{2-[4-oxo-2-(3-propyl-nonyl)-1,3,8-triaza-spiro[4.5]dec-1-ene-8-sulfonyl]-ethyl}-phenyl)-1-methyl-urea], for which the “cAMP production activity (%)” value is 111%.
As for `Cc1cc(N(C)C(N)=O)cc(C)c1CC[S@TB4](=O)(=O)N1CCC2(CC1)N=C(CCCCCCCCCCCF)NC2=O` [Compound 1153, 1-(4-{2-[2-(11-fluoro-undecyl)-4-oxo-1,3,8-triaza-spiro[4.5]dec-1-ene-8-sulfonyl]-ethyl}-3,5-dimethyl-phenyl)-1-methyl-urea], the “cAMP production activity (%)” value amounted to 106%.
For the molecule `CN[C@@H]1CCN(C(=O)c2cc(C)c(/C=C/S(=O)(=O)N3CCC4(CC3)N=C(c3cccc(OC(F)(F)F)c3)NC4=O)c(C)c2)C1` [Compound 398, 8-{(E)-2-[2,6-dimethyl-4-((R)-3-methylamino-pyrrolidine-1-carbonyl)-phenyl]-ethenesulfonyl}-2-(3-trifluoromethoxy-phenyl)-1,3,8-triaza-spiro[4.5]dec-1-en-4-one], the “cAMP production activity (%)” value was 52%.
As to `Cc1ccc(NCCO)cc1CCS(=O)(=O)N1CCC2(CC1)N=C(C1CCCCC1)NC2=O` [Compound 275, 2-cyclohexyl-8-{2-[5-(2-hydroxy-ethylamino)-2-methyl-phenyl]-ethanesulfonyl}-1,3,8-triaza-spiro[4.5]dec-1-en-4-one], the “cAMP production activity (%)” value is on record as 72%.
With `Cc1cc(C(=O)N2CCN(c3nccs3)CC2)ccc1CCS(=O)(=O)N1CCC2(CC1)N=C(c1cccc(C(F)(F)F)c1)NC2=O` [Compound 364, 8-{2-[2-methyl-4-(4-thiazol-2-yl-piperazine-1-carbonyl)-phenyl]-ethanesulfonyl}-2-(3-trifluoromethyl-phenyl)-1,3,8-triaza-spiro[4.5]dec-1-en-4-one], the “cAMP production activity (%)” value was found to be 78%.
As for `Cc1cc(C(=O)N2CC(O)C2)cc(C)c1/C=C/S(=O)(=O)N1CCC2(CC1)N=C(c1ccc(F)c(OC(F)(F)F)c1)NC2=O` [Compound 1102, 2-(4-Fluoro-3-trifluoromethoxy-phenyl)-8-{(E)-2-[4-(3-hydroxy-azetidine-1-carbonyl)-2,6-dimethyl-phenyl]-ethenesulfonyl}-1,3,8-triaza-spiro[4.5]dec-1-en-4-one], the “cAMP production activity (%)” value is 10%.
As for `CC(=O)Nc1cc(C)c(CCS(=O)(=O)N2CCC3(CC2)N=C(C2CCCCC2)NC3=O)c(C)c1` [Compound 302, N-{4-[2-(2-cyclohexyl-4-oxo-1,3,8-triaza-spiro[4.5]dec-1-ene-8-sulfonyl)-ethyl]-3,5-dimethyl-phenyl}-acetamide], the “cAMP production activity (%)” value was 95%.
For `Cc1cc(N2CCCCC2=O)cc(C)c1CCS(=O)(=O)N1CCC2(CC1)N=C(C1CCC(C)CC1)NC2=O` (centres unmarked) [Compound 771, 8-{2-[2,6-dimethyl-4-(2-oxo-piperidin-1-yl)-phenyl]-ethanesulfonyl}-2-(4-methyl-cyclohexyl)-1,3,8-triaza-spiro[4.5]dec-1-en-4-one], the “cAMP production activity (%)” value is 80%.
With `Cc1cc(N(C)C(N)=O)cc(C)c1CCS(=O)(=O)N1CCC2(CC1)N=C(C1C3CCC1CC3)NC2=O` (centres unmarked) [Compound 1056, 1-{4-[2-(2-bicyclo[2.2.1]hept-7-yl-4-oxo-1,3,8-triaza-spiro[4.5]dec-1-ene-8-sulfonyl)-ethyl]-3,5-dimethyl-phenyl}-1-methyl-urea], the “cAMP production activity (%)” value was 94%.
For `O=C(C1CCc2ccccc2C1)N1CCCC(C2=NC3(CCN(S(=O)(=O)CCc4cccc5ccccc45)CC3)C(=O)N2)C1` (centres unmarked) [Compound 430, 8-(2-naphthalen-1-yl-ethanesulfonyl)-2-[1-(1,2,3,4-tetrahydro-naphthalene-2-carbonyl)-piperidin-3-yl]-1,3,8-triaza-spiro[4.5]dec-1-en-4-one], the “cAMP production activity (%)” value is listed as 23%.
For `Cc1cc(S(N)(=O)=O)ccc1/C=C/S(=O)(=O)N1CCC2(CC1)N=C(c1cccc(C(F)(F)F)c1)NC2=O` [Compound 213, 3-methyl-4-{(E)-2-[4-oxo-2-(3-trifluoromethyl-phenyl)-1,3,8-triaza-spiro[4.5]dec-1-ene-8-sulfonyl]-vinyl}-benzenesulfonamide], the “cAMP production activity (%)” value amounted to 74%.
The same measure for `Cc1cc(N(C)c2c(N(C)C)c(=O)c2=O)cc(C)c1CCS(=O)(=O)N1CCC2(CC1)N=C([C@H]1CC[C@H](C)CC1)NC2=O` [Compound 1369, 3-Dimethylamino-4-[(3,5-dimethyl-4-{2-[2-(4-methyl-cyclohexyl)-4-oxo-1,3,8-triaza-spiro[4.5]dec-1-ene-8-sulfonyl]-ethyl}-phenyl)-methyl-amino]-cyclobut-3-ene-1,2-dione]: 30%.
With `O=C1NC(c2cccc(OC(F)(F)F)c2)=NC12CCN(S(=O)(=O)/C=C/c1cc(F)c(OCCC(O)CO)c(F)c1)CC2` (centres unmarked) [Compound 600, 8-{(E)-2-[4-(3,4-dihydroxy-butoxy)-3,5-difluoro-phenyl]-ethenesulfonyl}-2-(3-trifluoromethoxy-phenyl)-1,3,8-triaza-spiro[4.5]dec-1-en-4-one], the “cAMP production activity (%)” value is given as 67%.
For `Cc1cc(C(=O)N2CCC(O)(CF)CC2)cc(C)c1CCS(=O)(=O)N1CCC2(CC1)N=C(c1ccc3c(c1)OC(F)(F)C(F)(F)O3)NC2=O` [Compound 1281, 8-{2-[4-(4-fluoromethyl-4-hydroxy-piperidine-1-carbonyl)-2,6-dimethyl-phenyl]-ethanesulfonyl}-2-(2,2,3,3-tetrafluoro-2,3-dihydro-benzo[1,4]dioxin-6-yl)-1,3,8-triaza-spiro[4.5]dec-1-en-4-one], the “cAMP production activity (%)” value was 95%.
Turning to `O=C(O)Cn1ccc2c(/C=C/S(=O)(=O)N3CCC4(CC3)N=C(C3CCCCC3)NC4=O)cccc21` [Compound 1168, {4-[(E)-2-(2-Cyclohexyl-4-oxo-1,3,8-triaza-spiro[4.5]dec-1-ene-8-sulfonyl)-vinyl]-indol-1-yl}-acetic acid], the “cAMP production activity (%)” value stood at 27%.
